Measurements published in PubChem BioAssay (NCI).
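Growth conditions: 96-well plates. Treatment: test compound, 48 hours, 5 concentrations. Analysis: linear interpolation between bracketing concentrations; unreached endpoints set to highest concentration. The concentration for 50% growth inhibition is given as GI50. TGI denotes the concentration required for complete inhibition of growth.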

What was measured:
Assay in all cases: inhibition of tumour cell growth, NCI panel, 48 h
SF-539 CNS = tested on: SF-539 CNS
UACC-62 melanoma = tested on: UACC-62 melanoma
MOLT-4 leukemia = tested on: MOLT-4 leukemia
HS 578T breast = tested on: HS 578T breast
K-562 leukemia = tested on: K-562 leukemia
UO-31 renal = tested on: UO-31 renal
SK-MEL-28 melanoma = tested on: SK-MEL-28 melanoma
HOP-92 NSCLC = tested on: HOP-92 NSCLC
SNB-78 CNS = tested on: SNB-78 CNS

Structure (SMILES): COc1c(C(N)=O)cc(-c2ccc(Cl)cc2)cc1-c1ccc(S(N)(=O)=O)cc1
- GI50 (SF-539 CNS): 14.2 µM
- TGI (SF-539 CNS): > 25 µM
- GI50 (UACC-62 melanoma): 12.8 µM
- TGI (UACC-62 melanoma): > 25 µM
- GI50 (MOLT-4 leukemia): 8.96 µM
- TGI (MOLT-4 leukemia): > 20.7 µM
- GI50 (HS 578T breast): 14.4 µM
- TGI (HS 578T breast): 24.9 µM
- GI50 (K-562 leukemia): 7.94 µM
- TGI (K-562 leukemia): > 20.3 µM
- GI50 (UO-31 renal): 9.95 µM
- TGI (UO-31 renal): > 23.5 µM
- GI50 (SK-MEL-28 melanoma): 16.9 µM
- TGI (SK-MEL-28 melanoma): > 25 µM
- GI50 (HOP-92 NSCLC): 3.26 µM
- TGI (HOP-92 NSCLC): 10.4 µM

Structure (SMILES): CC(C)[C@@H](C(=O)O[C@@H]1/C=C/C(=O)O[C@@H](C)CCC/C=C/[C@@H]2C[C@H](O)C[C@H]21)N(C)C
- GI50 (SF-539 CNS): 22.5 µM
- TGI (SF-539 CNS): 67.4 µM
- GI50 (UACC-62 melanoma): 21.7 µM
- TGI (UACC-62 melanoma): > 72.1 µM
- GI50 (MOLT-4 leukemia): 15.9 µM
- TGI (MOLT-4 leukemia): 42.8 µM
- GI50 (HS 578T breast): 6.4 µM
- TGI (HS 578T breast): 50.5 µM
- GI50 (K-562 leukemia): 20.3 µM
- TGI (K-562 leukemia): 50.7 µM
- GI50 (UO-31 renal): 23.1 µM
- TGI (UO-31 renal): > 100 µM
- GI50 (SK-MEL-28 melanoma): 6.03 µM
- TGI (SK-MEL-28 melanoma): 23.5 µM
- GI50 (HOP-92 NSCLC): 0.0403 µM
- TGI (HOP-92 NSCLC): 0.0954 µM

Structure (SMILES): COC(=O)Nc1nc2ccc(C(=O)c3cccc(I)c3)cc2[nH]1
- GI50 (SF-539 CNS): 0.0589 µM
- TGI (SF-539 CNS): 0.384 µM
- GI50 (UACC-62 melanoma): 0.234 µM
- TGI (UACC-62 melanoma): 18.1 µM
- GI50 (MOLT-4 leukemia): 0.0609 µM
- TGI (MOLT-4 leukemia): 10.6 µM
- GI50 (HS 578T breast): 0.0904 µM
- TGI (HS 578T breast): 25.7 µM
- GI50 (K-562 leukemia): 0.0364 µM
- TGI (K-562 leukemia): 14.2 µM
- GI50 (UO-31 renal): 0.316 µM
- TGI (UO-31 renal): 17.2 µM
- GI50 (SK-MEL-28 melanoma): 1.13 µM
- TGI (SK-MEL-28 melanoma): > 81.2 µM
- GI50 (HOP-92 NSCLC): 0.0985 µM
- TGI (HOP-92 NSCLC): 11.7 µM

Structure (SMILES): CCN1CCN(C(=O)[C@]23CC[C@@H](C)[C@H](C)[C@@H]2C2=CC[C@@H]4[C@@]5(C)CCC(=O)C(C)(C)[C@@H]5CC[C@@]4(C)[C@]2(C)CC3)CC1
- GI50 (SF-539 CNS): 0.843 µM
- TGI (SF-539 CNS): 1.54 µM
- GI50 (UACC-62 melanoma): 0.835 µM
- TGI (UACC-62 melanoma): 1.61 µM
- GI50 (MOLT-4 leukemia): 0.809 µM
- TGI (MOLT-4 leukemia): 1.99 µM
- GI50 (HS 578T breast): 1.07 µM
- TGI (HS 578T breast): 2.68 µM
- GI50 (K-562 leukemia): 0.994 µM
- TGI (K-562 leukemia): 2.9 µM
- GI50 (UO-31 renal): 0.726 µM
- TGI (UO-31 renal): 1.42 µM
- GI50 (SK-MEL-28 melanoma): 0.889 µM
- TGI (SK-MEL-28 melanoma): 1.7 µM
- GI50 (HOP-92 NSCLC): 0.713 µM
- TGI (HOP-92 NSCLC): 2.06 µM

Structure (SMILES): O=C(CC12C3C4C1C1C2C3C41CC(=O)NO)NO (centres undefined)
- TGI (SF-539 CNS): > 100 µM
- TGI (UACC-62 melanoma): > 100 µM
- TGI (MOLT-4 leukemia): > 100 µM
- TGI (K-562 leukemia): 87.1 µM
- TGI (SK-MEL-28 melanoma): > 100 µM
- TGI (HOP-92 NSCLC): 97 µM
- TGI (SNB-78 CNS): > 100 µM

Structure (SMILES): Cc1ccc2ccccc2c1CSc1nc(N)nc2c1ncn2CC(C)C
- TGI (SF-539 CNS): > 44.8 µM
- TGI (UACC-62 melanoma): > 100 µM
- TGI (MOLT-4 leukemia): 29.7 µM
- TGI (HS 578T breast): > 100 µM
- TGI (K-562 leukemia): > 100 µM
- TGI (UO-31 renal): 13.2 µM
- TGI (SK-MEL-28 melanoma): > 100 µM
- TGI (HOP-92 NSCLC): > 100 µM

Structure (SMILES): Cc1nnc(N/N=C/c2ccc([N+](=O)[O-])o2)[nH]c1=O
- GI50 (SF-539 CNS): 0.447 µM
- TGI (SF-539 CNS): > 51.6 µM
- GI50 (UACC-62 melanoma): 0.666 µM
- TGI (UACC-62 melanoma): 7.75 µM
- GI50 (MOLT-4 leukemia): 0.833 µM
- TGI (MOLT-4 leukemia): > 100 µM
- GI50 (HS 578T breast): 0.425 µM
- TGI (HS 578T breast): 40.8 µM
- GI50 (K-562 leukemia): 0.796 µM
- TGI (K-562 leukemia): > 100 µM
- GI50 (UO-31 renal): 0.931 µM
- TGI (UO-31 renal): 10.8 µM
- GI50 (SK-MEL-28 melanoma): 0.815 µM
- TGI (SK-MEL-28 melanoma): > 100 µM
- GI50 (HOP-92 NSCLC): 0.228 µM
- TGI (HOP-92 NSCLC): 1.76 µM

Structure (SMILES): COc1nn(C)cc1Nc1nccc(-c2c[nH]c3c(NC(=O)[C@@H](C)N4CCN(C)CC4)cccc23)n1
- GI50 (SF-539 CNS): 18 µM
- TGI (SF-539 CNS): 38.4 µM
- GI50 (UACC-62 melanoma): 40.6 µM
- TGI (UACC-62 melanoma): > 100 µM
- GI50 (MOLT-4 leukemia): 37.8 µM
- TGI (MOLT-4 leukemia): > 100 µM
- GI50 (HS 578T breast): 27 µM
- TGI (HS 578T breast): > 100 µM
- GI50 (K-562 leukemia): 29.2 µM
- TGI (K-562 leukemia): > 100 µM
- GI50 (UO-31 renal): 20.7 µM
- TGI (UO-31 renal): > 100 µM
- GI50 (SK-MEL-28 melanoma): 53.9 µM
- TGI (SK-MEL-28 melanoma): > 100 µM
- GI50 (HOP-92 NSCLC): 41.7 µM
- TGI (HOP-92 NSCLC): > 100 µM

Structure (SMILES): O=C(Nc1cccc([N+](=O)[O-])c1)c1cccc(C(=O)Nc2cccc([N+](=O)[O-])c2)c1
- GI50 (SF-539 CNS): 27.8 µM
- TGI (SF-539 CNS): > 100 µM
- GI50 (UACC-62 melanoma): > 100 µM
- TGI (UACC-62 melanoma): > 100 µM
- GI50 (MOLT-4 leukemia): > 100 µM
- TGI (MOLT-4 leukemia): > 100 µM
- GI50 (HS 578T breast): 7.5 µM
- TGI (HS 578T breast): > 30.7 µM
- GI50 (K-562 leukemia): > 100 µM
- TGI (K-562 leukemia): > 100 µM
- GI50 (UO-31 renal): > 100 µM
- TGI (UO-31 renal): > 100 µM
- GI50 (SK-MEL-28 melanoma): > 100 µM
- TGI (SK-MEL-28 melanoma): > 100 µM
- GI50 (HOP-92 NSCLC): 8.85 µM
- TGI (HOP-92 NSCLC): 60.7 µM

Structure (SMILES): COC(=O)CC[C@@H](C)[C@H]1CC[C@H]2[C@@H]3CC[C@@H]4C[C@H](O)CC[C@]4(C)[C@H]3CC[C@]12C
- TGI (SF-539 CNS): 36 µM
- TGI (UACC-62 melanoma): 34.3 µM
- TGI (MOLT-4 leukemia): 40.7 µM
- TGI (HS 578T breast): 55.8 µM
- TGI (K-562 leukemia): 65.7 µM
- TGI (UO-31 renal): 34.9 µM
- TGI (SK-MEL-28 melanoma): 35.6 µM
- TGI (HOP-92 NSCLC): 27.8 µM

Structure (SMILES): CC1=CC(C)=N/C(=N/S(=O)(=O)c2cc(C)c(Cl)cc2SCc2ccccc2)NN1
- GI50 (SF-539 CNS): 81.1 µM
- TGI (SF-539 CNS): > 100 µM
- GI50 (UACC-62 melanoma): > 100 µM
- TGI (UACC-62 melanoma): > 100 µM
- GI50 (MOLT-4 leukemia): > 100 µM
- TGI (MOLT-4 leukemia): > 100 µM
- GI50 (HS 578T breast): > 100 µM
- TGI (HS 578T breast): > 100 µM
- GI50 (K-562 leukemia): > 100 µM
- TGI (K-562 leukemia): > 100 µM
- GI50 (UO-31 renal): > 100 µM
- TGI (UO-31 renal): > 100 µM
- GI50 (SK-MEL-28 melanoma): > 100 µM
- TGI (SK-MEL-28 melanoma): > 100 µM
- GI50 (HOP-92 NSCLC): 17.9 µM
- TGI (HOP-92 NSCLC): 62.8 µM

Structure (SMILES): CC1=C(CCC(C)CO)O[C@H]2C[C@H]3[C@@H]4CC[C@H]5C[C@@H](O)CC[C@]5(C)[C@H]4CC(=O)[C@]3(C)[C@@H]12 (some centres undefined)
- TGI (SF-539 CNS): 72.7 µM
- TGI (UACC-62 melanoma): 18.1 µM
- TGI (MOLT-4 leukemia): 19.2 µM
- TGI (HS 578T breast): 52.5 µM
- TGI (K-562 leukemia): 40.7 µM
- TGI (UO-31 renal): 33.3 µM
- TGI (SK-MEL-28 melanoma): > 78.5 µM
- TGI (HOP-92 NSCLC): 67.3 µM
